Converted amounts (≈) assume the structure as drawn. Where two headings read alike, the source gives them in different places.
Legend:
human thrombocytes = experiment: Inhibition of the collagen-induced aggregation of human thrombocytes in vitro; format: cell-based; conditions: for EC50: 10 min, read-out: Inhibition of thrombocyte aggregation EC 50%; for Inhibition of thrombocyte aggregation R.E. (relative effectiveness): acetylsalicylic acid = 1.00
Method: 1. Inhibition of the collagen-induced aggregation of human thrombocytes in vitro.
Thrombocyte-rich plasma is obtained by centrifuging venous citrate blood (300 g, 10 minutes duration at 4° C.). The photometric measurement of the thrombocyte aggregation is carried out with addition of MgCl2 (final concentration 10 millimoles/l) and of collagen Stago (final concentration 0.02 mg/ml) in a Born Mk 3 aggregometer. The maximum extinction change/sec is used as a measure of the aggregation.
The aggregation-inhibiting activity of the substances is tested after an incubation time of 10 minutes.
(§1) The effective doses or effective concentrations were calculated from the linear relationships between the logarithm of the dose or concentration and the logarithm of the effect, by means of regression analysis.
(§2) Acetylsalicyclic acid was used as the reference substance for the inhibition of thrombocyte aggregation and dihydralazine was used as the reference substance for the anti-hypertensive effect.

rat thrombocytes = experiment: Inhibition of the collagen-induced aggregation of rat thrombocytes ex vivo; format: in vivo, male Sprague-Dawley rats; conditions: for ED33: Rattus norvegicus, read-out: Inhibition of thrombocyte aggregation ED 33%; for Inhibition of thrombocyte aggregation R.E. (relative effectiveness): acetylsalicylic acid 1.0
Method: 2. Inhibition of the collagen-induced aggregation of rat thrombocytes ex vivo.
The substances are administered orally to groups of 10-15 male Sprague-Dawley rats weighing 200-250 g. 2-4 hours after administration, blood is taken under ether narcosis and thrombocyte-rich plasma is obtained by centrifuging. The aggregation after addition of collagen is measured as indicated above.
as §1, §2

[1] = Toxicity (LD 50), mice, intraperitoneal administration; format: in vivo; conditions: mouse, in vivo, ip; mice, intraperitoneal administration
Excerpt: (§3) ^(3) Mice. Intraperitoneal administration.

narcotized rats = experiment: Anti-hypertensive effect on narcotized rats; format: in vivo, male Sprague-Dawley rats; conditions: for ED20: Rattus norvegicus, ip, dose at which the blood pressure falls by 20%, read-out: Lowering of blood pressure ED 20%; for ED20 / Lowering of blood pressure R.E. (relative effectiveness): rats, urethane narcosis, intraperitoneal; for Lowering of blood pressure R.E. (relative effectiveness): dihydralazine = 1.00; for anti-hypertensive effect (in words): Table 1; for anti-hypertensive power relative to dihydralazine: times more powerful than dihydralazine
Method: 3. Anti-hypertensive effect on narcotized rats.
To test the anti-hypertensive effect, the substances are administered intraperitoneally to groups of 3-5 male Sprague-Dawley rats weighing 240-280 g, under urethane narcosis ([…] given intraperitoneally). The measurement of the blood pressure in the carotid artery is carried out by means of Statham transducers. The ED 20% is determined as the dose which lowers the mean carotid blood pressure by 20%.
as §1, §2

[2] = system: spontaneously hypertonic rats; experiment: Anti-hypertensive effect on spontaneously hypertonic rats; format: in vivo, male spontaneously hypertonic Okamoto rats; conditions: for ED20: Rattus norvegicus, 2 hours, dose which lowers the blood pressure by 20% compared to the control group, read-out: Anti-hypertensive effect ED 20%; for ED20 / Anti-hypertensive effect R.E. (relative effectiveness): spontaneously hypertonic rats, oral; for Anti-hypertensive effect R.E. (relative effectiveness): dihydralazine 1.0
Method: 4. Anti-hypertensive effect on spontaneously hypertonic rats.
The substances are administered orally to groups of 4-8 male spontaneously hypertonic Okamoto rats weighing 270-340 g.
Before, and 2 hours after, the administration, the systolic blood pressure is measured non-surgically by means of piezo-electric crystal sensors.
The ED 20% is determined as the dose which lowers the systolic pressure by 20%, taking into account the values found with untreated control animals.
as §1, §2

Mice = experiment: Toxicity (LD 50), mice, intraperitoneal administration; format: in vivo; conditions: compared with acetylsalicylic acid and dihydralazine; Table 2
Excerpt: as §3

[3] = human thrombocytes, in vitro, collagen 0.02 mg/ml, 10 minutes incubation, concentration which inhibits collagen-induced aggregation by 50%

| SMILES | EC50 (human thrombocytes; [3]) | Inhibition of thrombocyte aggregation R.E. (relative effectiveness) (human thrombocytes; human thrombocytes, in vitro) | ED20 (narcotized rats) | Lowering of blood pressure R.E. (relative effectiveness) (narcotized rats) | anti-hypertensive effect (in words) (narcotized rats) | other results |
| --- | --- | --- | --- | --- | --- | --- |
| CC(=O)Oc1ccccc1C(=O)O [Acetylsalicylic acid, acetylsalicylic acid, reference compound] | – | – | – | – | – | EC50 (human thrombocytes; Homo sapiens): 494 µg/mL (≈ 2740 µM); ED33 (rat thrombocytes; po): 134 mg/kg; Inhibition of thrombocyte aggregation R.E. (relative effectiveness) (rat thrombocytes; rats, oral, ex vivo): 1.0; LD50 [1]: 167 mg/kg |
| NNc1nnc(NN)c2ccccc12 [Dihydralazine, dihydralazine, reference compound] | 149 µg/mL (≈ 783 µM) | 3.32 | 0.34 mg/kg | 1.00 | – | ED20 [2]: 6.85 mg/kg; Anti-hypertensive effect R.E. (relative effectiveness) [2]: 1.0; LD50 [1]: 106 mg/kg |
| O=C1CCC(c2ccc(NC(=O)CCl)cc2)=NN1 [Example 1, 6-(p-chloroacetylaminophenyl)-4,5-dihydropyridaz-3-one] | 0.25 µg/mL (≈ 0.941 µM) | 1,980 | 0.37 mg/kg | 0.92 | about as active as dihydralazine | – |
| CC1CC(=O)NN=C1c1ccc(NC(=O)CCl)cc1 (stereo not shown) [Example 3, 6-(p-chloroacetylaminophenyl)-5-methyl-4,-dihydropyridaz-3-one] | 0.11 µg/mL (≈ 0.393 µM) | 4,490 | 0.15 mg/kg | 2.27 | about as active as dihydralazine | – |
| CC(Cl)C(=O)Nc1ccc(C2=NNC(=O)CC2)cc1 (stereo not shown) [Example 4, 6-[p-(2-chloropropionylamino)-phenyl]-4,5-dihydropyridaz-3-one] | 0.27 µg/mL (≈ 0.965 µM) | 1,830 | 0.53 mg/kg | 0.64 | about as active as dihydralazine | – |
| CC(Cl)C(=O)Nc1ccc(C2=NNC(=O)CC2C)cc1 (stereo not shown) [Example 5, 6-[p-(2-chloropropionylamino)-phenyl]-5-methyl-4,5-dihydropyridaz-3-one] | 0.031 µg/mL (≈ 0.106 µM) | 15,900 | 0.0079 mg/kg | 43.04 | – | ED33 (rat thrombocytes; rats, oral, ex vivo, Example 5 given 2 hours, acetylsalicylic acid 4 hours before measuring, dose which inhibits collagen-induced aggregation by 33%): 0.82 mg/kg; inhibition of thrombocyte aggregation after oral administration (in words) (rat thrombocytes; oral, Table 2): very strong inhibition of thrombocyte aggregation; Inhibition of thrombocyte aggregation R.E. (relative effectiveness) (rat thrombocytes; rats, oral, ex vivo): 163; anti-hypertensive power relative to dihydralazine (narcotized rats): 43 times; ED20 [2]: 1.16 mg/kg; lowering of blood pressure ([2]; spontaneously hypertensive rats, oral dose of 1.2 mg/kg): about 20%; Anti-hypertensive effect R.E. (relative effectiveness) [2]: 5.9; LD50 [1]: 231 mg/kg; acute toxicity (in words) (Mice): somewhat less than that of acetylsalicyclic acid and dihydralazine |
| O=C1CCC(c2ccc(NC(=O)CCCl)cc2)=NN1 [Example 6, 6-[p-(3-chloropropionylamino)-phenyl]-4,5-dihydropyridaz-3-one] | 0.35 µg/mL (≈ 1.25 µM) | 1,410 | 10 mg/kg | 0.03 | slight | inhibition of thrombocyte aggregation (in words) (human thrombocytes; human thrombocytes, collagen-induced, Table 1): highly specific thrombocyte aggregation-inhibiting effect |
| CC1CC(=O)NN=C1c1ccc(NC(=O)CCCl)cc1 (stereo not shown) [Example 7, 6-[p-(3-chloropropionylamino)-phenyl]-5-methyl-4,5-dihydropyridaz-3-one] | 0.3 µg/mL (≈ 1.02 µM) | 1,650 | 0.045 mg/kg | 7.56 | – | anti-hypertensive power relative to dihydralazine (narcotized rats): 7.6 times |
| CC1CC(=O)NN=C1c1ccc(NC(=O)CCCCl)cc1 (stereo not shown) [Example 8, 6-[p-(4-chlorobutyrylamino)-phenyl]-5-methyl-4,5-dihydropyridaz-3-one] | 1.7 µg/mL (≈ 5.52 µM) | 291 | 0.32 mg/kg | 1.06 | about as active as dihydralazine | – |
| CCC(Br)C(=O)Nc1ccc(C2=NNC(=O)CC2C)cc1 (stereo not shown) [Example 9] | 0.27 µg/mL (≈ 0.767 µM) | 1,830 | 1.49 mg/kg | 0.23 | slight | – |
| CC1CC(=O)NN=C1c1ccc(NC(=O)C(C)(C)CCl)cc1 (stereo not shown) [Example 11] | 0.47 µg/mL (≈ 1.46 µM) | 1,050 | 0.61 mg/kg | 0.56 | – | – |
| CC1CC(=O)NN=C1c1ccc(NC(=O)C(C)(C)CBr)cc1 (stereo not shown) [Example 12] | 0.44 µg/mL (≈ 1.2 µM) | 1,120 | 0.34 mg/kg | 1.00 | about as active as dihydralazine | – |
| CC(Br)C(=O)Nc1ccc(C2=NNC(=O)CC2C)cc1 (stereo not shown) [Example 16] | 0.58 µg/mL (≈ 1.71 µM) | 852 | 0.4 mg/kg | 0.85 | about as active as dihydralazine | – |
| CC1CC(=O)NN=C1c1ccc(NC(=O)C(C)(C)Br)cc1 (stereo not shown) [Example 17] | 0.89 µg/mL (≈ 2.53 µM) | 555 | 2.93 mg/kg | 0.12 | slight | – |
